Test results published in ChEMBL document CHEMBL3779890, “Novel prodrugs with a spontaneous cleavable guanidine moiety” (Bioorg Med Chem Lett, 2016).
≈ marks a conversion by molar mass, not a printed value.

How the values were obtained:
[1] = Prodrug conversion in PBS assessed as half life for 50% release of Quinine in pH 7.4 at 37 degC after 1 hr by ESI-mass spectrometry; format: ADME; settings: buffer, pH 7.4, 1 h
[2] = Solubility of the compound in water at room temperature after 15 mins by HPLC analysis; format: physicochemical
[3] = Stability of the compound in methanol-CH3CN at 4 degC after 1 month by HPLC analysis; format: physicochemical; settings: 730.5 h
[4] = Prodrug conversion in PBS assessed as half life for 50% release of Quinine in pH 7.4 at 37 degC by ESI-mass spectrometry; format: ADME; settings: buffer, TDE = time-dependent effect
[5] = Prodrug conversion in PBS assessed as half life for 50% release of 2-Aminobenzimidazole in pH 7.4 at 37 degC after 1 hr by ESI-mass spectrometry; format: ADME; settings: buffer, pH 7.4, 1 h
[6] = Prodrug conversion in PBS assessed as half life for 50% release of Sulfathiazole in pH 7.4 at 37 degC after 1 hr by ESI-mass spectrometry; format: ADME; settings: buffer, pH 7.4, 1 h
[7] = Prodrug conversion in PBS assessed as half life for 50% release of ritonavir in pH 7.4 at 37 degC after 1 hr by ESI-mass spectrometry; format: ADME; settings: buffer, pH 7.4, 1 h
[8] = Prodrug conversion in PBS assessed as half life for 50% release of Phenytoin in pH 7.4 at 37 degC after 1 hr by ESI-mass spectrometry; format: ADME; settings: buffer, pH 7.4, 1 h

With `C=C[C@@H]1CN2CC[C@H]1C[C@H]2[C@H](OC(=O)CCNC(=N)N)c1ccnc2ccc(OC)cc12.O=C(O)C(F)(F)F` the t1/2 [1] was 1.1 min, the solubility at 0.25 h [2] was greater than 10000 µg/mL and the Stability [3] was “Stable”.
In the case of `C=C[C@@H]1CN2CC[C@H]1C[C@H]2[C@H](OC(=O)CCCN)c1ccnc2ccc(OC)cc12.O=C(O)C(F)(F)F`, the t1/2 [1] was 102 min and the Drug metabolism [4] was “tde”.
In the case of `N=C(N)NCC(=O)Nc1nc2ccccc2[nH]1.O=C(O)C(F)(F)F`, the t1/2 [5] was 38 min.
Compound `Nc1ccc(S(=O)(=O)Nc2nccs2)cc1.O=C(O)C(F)(F)F` has a solubility at 0.25 h [2] of 1.4 µg/mL.
With `C=C[C@@H]1CN2CC[C@H]1C[C@H]2[C@H](OC(=O)CNC(=N)N)c1ccnc2ccc(OC)cc12.O=C(O)C(F)(F)F` the t1/2 [1] was less than 1 min.
For `C[C@H](NC(=N)N)C(=O)Nc1ccc(S(=O)(=O)Nc2nccs2)cc1.O=C(O)C(F)(F)F`, the t1/2 [6] was 40 min, the solubility at 0.25 h [2] was 7100 µg/mL and the Stability [3] was “Stable”.
For `CC(C)c1nc(CN(C)C(=O)N[C@H](C(=O)N[C@@H](Cc2ccccc2)C[C@H](O)[C@H](Cc2ccccc2)NC(=O)OCc2cncs2)C(C)C)cs1` [RITONAVIR], the t1/2 [7] was 42 h.
Work on `CN(CC(=O)N1C(=O)NC(c2ccccc2)(c2ccccc2)C1=O)C(=N)N.O=C(O)C(F)(F)F` yielded a t1/2 [8] of 0.78 min.
With `C[C@H](NC(=N)N)C(=O)N1C(=O)NC(c2ccccc2)(c2ccccc2)C1=O.O=C(O)C(F)(F)F` the t1/2 [8] was 1.1 min.
With `N=C(N)NCC(=O)N1C(=O)NC(c2ccccc2)(c2ccccc2)C1=O.O=C(O)C(F)(F)F` the t1/2 [8] was 13 min, the solubility at 0.25 h [2] was 10200 µg/mL and the Stability [3] was “Stable”.
Work on `O=C1NC(=O)C(c2ccccc2)(c2ccccc2)N1` [PHENYTOIN] yielded a solubility at 0.25 h [2] of 6.3 µg/mL (≈ 25 µM).
